Results reported in PubChem BioAssay AID516.

Target: Biliverdin reductase A (Homo sapiens) (UniProt P53004)
Assay: BLVRA binders by thermal stabilization, biophysical, DSF, SYPRO orange, recombinant protein (AID 516)
Details: at 10 µM, buffer 10 mM HEPES, pH 7.5, NaCl 150 mM, hits give high values

Sequence of Biliverdin reductase A (Homo sapiens) (P53004 whole entry, looked up): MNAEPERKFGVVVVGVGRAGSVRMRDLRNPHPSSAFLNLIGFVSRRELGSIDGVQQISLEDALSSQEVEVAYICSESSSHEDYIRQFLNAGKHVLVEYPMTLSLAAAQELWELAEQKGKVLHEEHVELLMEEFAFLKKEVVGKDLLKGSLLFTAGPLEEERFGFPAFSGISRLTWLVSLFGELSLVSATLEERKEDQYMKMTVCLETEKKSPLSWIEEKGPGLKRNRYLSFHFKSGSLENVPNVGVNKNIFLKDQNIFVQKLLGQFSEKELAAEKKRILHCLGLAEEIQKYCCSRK

Tm shift: 3.8 Celsius
SMILES: C=CC1=C(C)/C(=C/c2[nH]c(Cc3[nH]c(/C=C4\NC(=O)C(C)=C4C=C)c(C)c3CCC(=O)O)c(CCC(=O)O)c2C)NC1=O
